Experiment in all cases: DTP human tumour cell line panel, 48 h
Assay [1] relates to UO-31 renal.
For assay [2], the system named is EKVX NSCLC.
Assay [3] concerns HT29 colon.
Assay [4] relates to K-562 leukemia.
In assay [5] the test system is SN12C renal.
Assay [6] relates to M14 melanoma.
Assay [7] has as its system SK-MEL-28 melanoma.
The subject of assay [8] is U251 CNS.
In assay [9] the test system is SW-620 colon.
The subject of assay [10] is IGROV1 ovarian.

Values joined by “and” are separate entries in the source; they are usually repeats but may differ in a detail not shown here. Identical values can stand only once.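 Exposure lasted 48 hours, with cells grown in 96-well plates and compounds tested at five concentrations. GI50 = concentration required for 50% inhibition of growth. TGI: concentration producing complete growth inhibition.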

On to `COc1cc([C@@H]2c3cc4c(cc3[C@@H](NC(=O)c3ccccc3)C3COC(=O)[C@@H]32)OCO4)cc(OC)c1O` (stereo partly specified), for which the TGI in [1] stood at 23.5 µM; in [2], 87.1 µM; in assay [3], 22 µM; in assay [4], 33.8 µM; in assay [5], 9.81 µM; in [6], 24.8 µM. In addition, the TGI in [7] is 87.7 µM; in assay [8], 13.5 µM; in assay [9], over 100 µM; in [10] it was 25.7 µM.

Consider `CN(CCOc1ccc(C#N)cc1)CCOc1ccc(C#N)cc1`, for which the GI50 is 18.7 µM in assay [1]; 63.2 µM in assay [2]; over 100 µM in assay [3]; 16.7 µM in assay [4]; over 100 µM in [5]; 78.9 µM in assay [6]. Moreover, the GI50 in assay [7] was over 100 µM; in assay [8] it was 81.4 µM; in [9] it was 57.5 µM; in assay [10], 1.66 µM. The TGI in [1], in assay [2], in assay [3], in assay [4], in assay [5] and in assay [6] was over 100 µM in each case. Further, the TGI in assay [7] was over 100 µM; in [8] it was over 100 µM; in assay [9], over 100 µM; in assay [10], 24.7 µM.

With `CN(C)CCOc1ccc2c(c1)C/C(=C/c1ncc([N+](=O)[O-])n1C)C2=O`, the TGI in [1] is 3.61 µM; in assay [2], 18 µM; in assay [3] it was 4.92 µM; in assay [4] it was over 20 µM; in assay [5], 9.78 µM; in assay [6], 5.71 µM. In addition, the TGI in assay [7] was 33.4 µM; in [8] it was 20.5 µM; in assay [9], 18.2 µM; in assay [10] it was 1.49 µM.

For the molecule `CC(=O)n1c2ccccc2c2nc3nc(Oc4ccc(C)cc4)c4ccccc4c3cc21`, the TGI in assay [1], in [2], in assay [3], in [4], in assay [5] and in assay [6] was over 100 µM throughout. Besides, the TGI in assay [7], in assay [8], in assay [9] and in [10] was over 100 µM in each case.

For `CC(=O)O[C@@H]1CC2C(C)(C)CCCC2(C)C2=C1C(=O)C(C(C)C)=CC2=O` (stereo partly specified), the GI50 is 0.519 µM in assay [1]; 1.02 µM in assay [2]; 2.03 µM in [3]; 1.69 µM in assay [4]; 1.28 µM in [5]; 0.46 µM in assay [6]. Moreover, the GI50 in assay [7] was 0.691 µM; in assay [8], 2.35 µM; in [9], 1.19 µM; in assay [10] it was 1.49 µM. Further, the TGI in assay [1] is 1.8 µM; in [2], 6.88 µM; in assay [3], 5.54 µM; in [4], over 100 µM; in [5], 4.89 µM; in assay [6], 2.34 µM. Besides, the TGI was 3.43 µM in assay [7], over 100 µM in [8], 3.28 µM in assay [9] and 4.87 µM in [10].

As for `CC1C(=O)C(C)C(c2ccccc2)N(N=O)C1c1ccccc1` (stereo unspecified), the GI50 was 268 µM in assay [1]; over 1000 µM in assay [2]; over 65.2 µM in assay [5]; 131 µM in assay [8]; over 1000 µM in assay [9]; 216 µM in assay [10]. Besides, the TGI was over 829 µM in assay [1]; over 1000 µM in assay [2]; over 833 µM in assay [3]; over 1000 µM in assay [4]; 981 µM in assay [5]; over 581 µM in [6]. The TGI in assay [7] is over 834 µM; in assay [8], > 92.4 µM and 397 µM; in assay [9], over 1000 µM; in assay [10], over 673 µM.

As to `COC(=O)CNC(=O)[C@@H](OC)[C@@H]1Cc2cc3cc(OC4CC(OC5CC(O)C(O)C(C)O5)C(O)C(C)O4)c(C)c(O)c3c(O)c2C(=O)[C@H]1OC1CC(OC2CC(OC3CC(C)(O)C(O)C(C)O3)C(O)C(C)O2)C(O)C(C)O1` (stereo partly specified), the GI50 in assay [1] is 0.45 µM; in [2], 0.219 µM; in [3], 0.171 µM; in assay [4], 0.192 µM; in assay [5] it was 0.138 µM; in [6], 0.239 µM. Besides, the GI50 in [7] was 0.11 µM; in assay [8], 0.0806 µM; in assay [9], 0.184 µM; in assay [10], 0.192 µM. Further, the TGI in [1] was 12.8 µM; in [2], over 50 µM; in [3], over 50 µM; in [4] it was over 50 µM; in [5] it was over 50 µM; in assay [6] it was 2.4 µM. Also, the TGI in assay [7] was 1.03 µM; in [8], over 50 µM; in [9] it was over 50 µM; in assay [10], over 50 µM.

In the case of `CCCCCCCCCc1cc(=O)c2ccc(O)cc2o1`, the TGI in assay [1], in assay [2], in assay [3], in assay [4], in assay [5] and in [6] was over 100 µM in each case. In addition, the TGI in assay [7], in assay [8], in assay [9] and in [10] was over 100 µM in each case.

As to `COc1ccc2oc3cccc(NCCN(C)C)c3c(=O)c2c1`, the TGI in assay [1] was 21.4 µM; in assay [2], 29.2 µM; in [3], 20.3 µM; in assay [4], 25.3 µM; in assay [5] it was 23.3 µM; in assay [6], 29.4 µM. The TGI in assay [7] was 32.9 µM; in assay [8], 25.3 µM; in assay [9], 15.6 µM; in assay [10], 31.2 µM.

For `CN(C)C(=S)N=Nc1c(O)[nH]c2ccccc12`, the GI50 in [1] is 0.384 µM; in assay [2], 0.397 µM; in assay [3], 0.558 µM; in assay [4] it was 0.475 µM; in assay [5] it was 0.578 µM; in assay [6] it was 0.484 µM. In addition, the GI50 in assay [7] is 2.57 µM; in assay [8], 0.392 µM; in [9], 0.576 µM; in assay [10], 0.508 µM. Also, the TGI in assay [1] is 6.03 µM; in assay [2], 11 µM; in [3], 17 µM; in assay [4], over 57.8 µM; in assay [5], 17.9 µM; in [6], 9.41 µM. Moreover, the concentration for total growth inhibition (TGI) in [7] turned out to be 22.7 µM; in [8], 27.6 µM; in [9] it was 21.6 µM; in assay [10], 7.39 µM.

For the molecule `CC/C=C\C/C=C\C/C=C\CCCCCCCC(=O)OCC`, the TGI in assay [1], in assay [2], in [3], in [4], in assay [5] and in [6] was over 100 µM each time. For the same molecule, the TGI in [7], in [8], in assay [9] and in assay [10] was over 100 µM throughout.

For `CSc1nc2c(nc(N)n2C2OCC(O)C(O)C2O)c(=O)n1C` (stereo unspecified), the total growth inhibition concentration (TGI) in assay [1], in assay [2], in [3], in [4], in [5] and in [6] was over 100 µM throughout. Besides, the TGI in assay [7], in assay [8], in assay [9] and in assay [10] was over 100 µM throughout.

For the molecule `CC(CNC(Cc1ccccc1)c1ccccc1)NC(Cc1ccccc1)c1ccccc1` (stereo unspecified), the GI50 was 1.87 µM in [1]; 2.47 µM in assay [2]; 1.97 µM in assay [3]; 2.48 µM in [4]; 2.22 µM in assay [5]; 1.79 µM in assay [6]. Further, the GI50 in assay [7] was 2.84 µM; in assay [8] it was 2.59 µM; in assay [9], 2.75 µM; in assay [10], 2.76 µM. In addition, the TGI in assay [1] was 6.06 µM; in assay [2] it was 9.16 µM; in assay [3] it was 4.04 µM; in assay [4], 6.41 µM; in assay [5], 6.38 µM; in assay [6], 3.6 µM. The TGI in assay [7] was 7.81 µM; in assay [8] it was 7.37 µM; in assay [9], 8.53 µM; in assay [10] it was 10.5 µM.

In the case of `Clc1nc(Cl)c2c(ncn2C/C=C\Cn2cnc3c(Cl)nc(Cl)nc32)n1`, the GI50 in [1] was 2.08 µM; in [2], 1.85 µM; in assay [3] it was 1.4 µM; in assay [4] it was 0.801 µM; in assay [5], 1.8 µM; in assay [6] it was 2.79 µM. Moreover, the GI50 in [7] is 1.66 µM; in assay [8], 1.85 µM; in [9] it was 0.776 µM; in assay [10], 0.269 µM. The concentration for total growth inhibition (TGI) is 4.35 µM in [1]; 3.5 µM in assay [2]; 2.73 µM in assay [3]; 21.1 µM in [4]; 6.14 µM in [5]; 6.92 µM in [6]. For the same molecule, the TGI in assay [7] came out at 3.02 µM; in assay [8] it was 3.91 µM; in [9], 2.12 µM; in [10], 0.771 µM.

Consider `CC(C)CC1=[N+]=C(NC#N)N=C(CCC(=O)Nc2ccccc2[N+](=O)[O-])C1`, for which the TGI in [1], in assay [2], in assay [3], in assay [4], in [5] and in [6] was over 100 µM throughout. Further, the TGI in assay [7], in [8], in assay [9] and in assay [10] was over 100 µM each time.

On to `O=C1C2=C(c3ccccc31)C(c1ccccc1)NC(=S)N2` (stereo unspecified), for which the TGI in [1] was over 100 µM; in [2] it was over 100 µM; in assay [3], over 100 µM; in assay [4] it was 67.4 µM; in [5], over 100 µM; in assay [6], over 100 µM. The TGI in [7], in assay [8], in [9] and in assay [10] was over 100 µM in each case.

Take `S=c1[nH]c2ccc(Br)cc2c(=S)n1-c1ccccc1`: the TGI in assay [1] was 59 µM; in assay [2], over 100 µM; in [3], 47.7 µM; in assay [4] it was over 100 µM; in assay [5], 98.7 µM; in [6] it was 98.6 µM. For the same molecule, the TGI in assay [7] is 59.9 µM; in assay [8] it was 48.4 µM; in assay [9], over 100 µM; in assay [10], 89.1 µM.

Regarding `CC(C)NC(=O)OCCS(=O)c1c(Cl)c(Cl)nn1C` (stereo unspecified), the TGI in [1] was over 100 µM; in assay [2] it was over 100 µM; in [3], over 100 µM; in assay [4] it was over 100 µM; in assay [5], over 100 µM; in assay [6], 39.4 µM. Moreover, the TGI in assay [7], in assay [8], in assay [9] and in [10] was over 100 µM in each case.

`CC(=O)c1cc([N+](=O)[O-])ccc1OCC(=O)O`: the TGI in [1], in assay [2], in [3], in assay [4], in [5] and in assay [6] was over 100 µM each time. The TGI in assay [7], in assay [8], in assay [9] and in assay [10] was over 100 µM each time.

Turning to `COc1ccc(NC(=O)c2cc(OC)c(OC)c(OC)c2)cc1`, the TGI in assay [1], in assay [2], in [3], in [4], in assay [5] and in [6] was over 100 µM in each case. Also, the TGI in assay [7] is 94.4 µM; in [8], over 100 µM; in assay [9], over 100 µM; in assay [10], over 100 µM.

For the molecule `OCCCCCCOc1ccc(-c2cc(-c3ccccn3)nc(-c3ccccn3)c2)cc1`, the TGI in [1] came to 2.45 µM; in assay [2] it was 4.97 µM; in [3], 11.8 µM; in assay [4] it was 3.78 µM; in assay [5], 3.02 µM; in [6] it was 4.3 µM. Moreover, the TGI was found to be 2.72 µM in assay [7], 1.6 µM in assay [8], 14.7 µM in [9] and 2.7 µM in assay [10].

As usually defined, the TGI is the concentration giving total growth inhibition. Low readings indicate greater sensitivity of the cells, high ones lower sensitivity of the cells. As a reminder, the GI50 is the concentration at which growth is held to half of that of the control.

(Values after PubChem BioAssay (NCI).)
